Measurements as given in patent US9861640B2, “Medicament for treatment of Alzheimer's disease” (KEMPHYS LTD., priority 2013, dated 2018).

Tests used:
RXR = details: 20 mg/kg; RXR-specific reporter transgene [48]; cited from earlier work
TNF-α = details: in vitro, Aβ peptide-activated [72]; cited from earlier work
APP/PS1 mice = details: cited from earlier work
nitric oxide production = details: in vitro [72, 73]; cited from earlier work
RARβ and IL-4Rα mRNAs = details: murine dendritic cells [66]; cited from earlier work
Tg2576 mice = details: T-maze spontaneous alternation and Nest building tests [17]; cited from earlier work
[1] = mice [17]; cited from earlier work
IDE = details: murine microglial cells [17]; cited from earlier work
CD36 = experiment: Immunoblot of CD36 in rat primary microglia; format: cell-based; details: rat primary microglia; co-incubation of GW9662 (10 μM) with HX630 (5 μM), 48 h
Source text: Primary microglia (type 1) were harvested from primary mixed glial cell cultures prepared from neonatal Wistar rat pups, as previously reported. Mouse microglial cell line MG5 and mouse glial cell line A1 were maintained as previously described. Mouse neuroblastoma cell line N1E-115 and Neuro 2a (American Type Culture Collection, Manassas, Va., USA) were maintained in Dulbecco's modified Eagle's medium (DMEM) supplemented with 10% fetal bovine serum (FBS), 20 U/ml penicillin (Invitrogen, Gaithersburg, Md., USA), and 20 μg/ml streptomycin (Invitrogen). Primary rat microglia were treated with Am80 (5 μM) and/or HX630 (5 μM) in the presence and absence of GW9662 (10 μM) for 48 h in Eagle's MEM supplemented with 10% FBS and 0.2% glucose. MG5 cells and A1 cells were treated with Am80 (5 μM) and/or HX630 (5 μM) for 48 h in DMEM containing 10% FBS. […]
Rat primary microglia and mouse microglial MG5 cells (5×10^6 cells per 100-mm dish) were homogenized in RIPA buffer [10 mM Hepes-NaOH (pH 7.4) containing 150 mM NaCl, 1 mM EDTA, 1% Triton X-100, 0.5% sodium deoxycholate, 0.1% SDS, 1 mM PMSF, 1 mg/ml leupeptin. […] Bound horseradish peroxidase-labeled antibodies were then detected via chemiluminescence (an ECL kit; Pierce, Rockford, Ill., USA). Protein concentrations were determined with the BCA Protein Assay Reagent (Pierce) and Bradford Protein Assay Reagent (Pierce).

RARs = details: at higher concentrations [49]; cited from earlier work
rat primary microglia = experiment: Clearance of 125I-labeled oligomeric Aβ1-42 by rat primary microglia; format: cell-based
Source text: Primary microglia (type 1) were harvested from primary mixed glial cell cultures prepared from neonatal Wistar rat pups, as previously reported. Mouse microglial cell line MG5 and mouse glial cell line A1 were maintained as previously described. Mouse neuroblastoma cell line N1E-115 and Neuro 2a (American Type Culture Collection, Manassas, Va., USA) were maintained in Dulbecco's modified Eagle's medium (DMEM) supplemented with 10% fetal bovine serum (FBS), 20 U/ml penicillin (Invitrogen, Gaithersburg, Md., USA), and 20 μg/ml streptomycin (Invitrogen). Primary rat microglia were treated with Am80 (5 μM) and/or HX630 (5 μM) in the presence and absence of GW9662 (10 μM) for 48 h in Eagle's MEM supplemented with 10% FBS and 0.2% glucose. MG5 cells and A1 cells were treated with Am80 (5 μM) and/or HX630 (5 μM) for 48 h in DMEM containing 10% FBS. N1E-115 cells were treated with Am80 (5 μM) and/or HX630 (5 μM) for 5 days in DMEM containing 2% FBS.
^125I-Labeled oligomeric Aβ1-42 (o-Aβ1-42) was prepared as described. Cells were cultured in 24-well plates for 48 h in Eagle's MEM supplemented with 10% FBS in the presence or absence of Am80 (5 μM) and HX630 (5 μM). After the 48-h treatment, the cells were washed twice with labeling medium (DMEM containing 3% BSA) and then incubated with ^125I-labeled o-Aβ1-42 for 6 h at 37° C. Following the 6-h incubation, medium was removed from each well, and soluble radioactivity in TCA (degraded and extracellularly released peptide fragments) was determined as an index of Aβ degradation in the medium as described previously. The Aβ degradation activity may thus include both receptor-mediated phagocytic activity and extracellular protease-mediated degradation. Cells were washed three times with PBS, then lysed with 0.4 ml of 0.1 M NaOH for 30 min at 37° C., and cell-associated (including cell-incorporated) radioactivity and cell proteins were determined with an autogamma counter and the BCA Protein Assay Reagent (Pierce), respectively. We could not determine the activity of IDE-dependent degradation in this medium, because the incubation medium was replaced with labeling medium prior to incubation with ^[…].

**Q.** Which “activation of RXR in vivo” value (RXR) does the source give for CC1=C(/C=C/C(C)=C/C=C/C(C)=C/C(=O)O)C(C)(C)CCC1 [ATRA, all trans retinoic acid] here?
**A.** Its value is “activates RXR”.

**Q.** What about the “inhibitory effect on TNF-α production” value (TNF-α) of the same molecule?
**A.** Its value is 40-50%.

**Q.** And the “memory function in APP/PS1 mice” value (APP/PS1 mice; ATRA alone [14])?
**A.** Its value is “improved memory function”.

**Q.** And the “inhibition of nitric oxide production” value (nitric oxide production)?
**A.** The value was “complete inhibition”.

**Q.** What about the “mRNAs encoding RARβ and IL-4Rα” value (RARβ and IL-4Rα mRNAs) of the same molecule?
**A.** The value was “markedly increased”.

**Q.** For CC1(C)CCC(C)(C)c2cc(C(=O)Nc3ccc(C(=O)O)cc3)ccc21 [Am580, 4-{(5,6,7,8-tetrahydro5,5,8,8-tetramethyl-2-naphthalenyl)carboxamido}benzoic acid], which “cognitive deficits in Tg2576 mice” value (Tg2576 mice) is on record?
**A.** Its value is “ameliorated cognitive deficits”.

**Q.** What about the “crossing of the BBB” value [1] of the same molecule?
**A.** Its value is “crosses the BBB”.

**Q.** And the “IDE activity in the medium” value (IDE)?
**A.** Its value is “increased”.

**Q.** Which “effect on the HX630-induced increase in CD36 expression” value (CD36) does the source give for O=C(Nc1ccccc1)c1cc([N+](=O)[O-])ccc1Cl [GW9662] here?
**A.** Its value is “inhibited”.

**Q.** Which results are given for C=C(c1ccc(C(=O)O)cc1)c1cc2c(cc1C)C(C)(C)CCC2(C)C [bexarotene]?
**A.** behavioral defects in APP/PS1 mice (APP/PS1 mice; mouse, in vivo): improved behavioral defects; cross-reactivity with RARs (RARs): cross-reactivity

**Q.** With O=C(O)CNC(=O)C(CS)Cc1ccccc1 (centres unmarked) [thiorphan] as the molecule, how does the “effect on degradation activity in Am80/HX630-treated cells” value (rat primary microglia; thiorphan 30 μM) read?
**A.** The value was “did not affect”.

**Q.** Which “effect on the HX630- and Am80/HX630-induced increase of o-Aβ1-42 degradation activity” value (rat primary microglia; fucoidan 100 μg/ml) does the source give for fucoidan here?
**A.** Its value is “inhibited”.

**Q.** For insulin: an IDE inhibitor, which “effect on cell-association and degradation activities in Am80/HX630-treated cells” value (rat primary microglia; insulin 100 μg/ml) is on record?
**A.** Its value is “inhibited”.
